Laboratory results published in patent publication US20040038888A1 (priority 2002, published 2004).

Key:
[1] = tested on: differentiating neural stem cells; assay: Intracellular ATP assay, differentiating adult mouse NSC, adherent culture; type: cell-based; settings: varying concentrations, adherent conditions, 3 days, relative to control, dose-dependent
Procedure: Adult mouse NSC were cultivated from the anterior lateral wall of the lateral ventricle of 5-6 week old mice as described in Example 2 (Method A).
Mouse neurospheres, cultured as described above, from passage 2, were seeded in DMEM/F12 supplemented with B27 and 1% Fetal Calf Serum into a 96-well plate coated with poly-D-lysine as single cells (30000 cells/well) and cultured over-night. The following day the medium was replaced with Neurosphere medium and PACAP added to the concentrations indicated. After 3 days incubation, intracellular ATP was measured using the ATP-SL kit from BioThema, Sweden, according to the manufacturer's instructions.

[2] = tested on: differentiating neural stem cells; assay: Thymidine incorporation, differentiating adult mouse NSC, adherent culture; type: cell-based; settings: adherent conditions, 3 days, relative to controls
Procedure: To determine thymidine incorporation into DNA, mouse neurospheres, cultured as described above, from passage 2, were seeded in DMEM/F12 supplemented with B27 and 1% Fetal Calf Serum into a 96-well plate coated with poly-D-lysine as single cells (30000 cells/well) and cultured over-night. The following day the medium was replaced with Neurosphere medium and PACAP added to the concentrations indicated for a further 3 days. 3H-thymidine, 10 uCi/ml, was present the last 24 hours. Cells were harvested on to a filter paper and radioactivity was measured. 3H-thymidine (6,7 Ci/mmol) was from PerkinElmer.

[3] = tested on: hippocampal NSC/neural progenitors cells; assay: PACAP/BrdU infusion, BrdU labelling of the dentate gyrus; type: in vivo, mouse; settings: 600 nM pump concentration, 0.5 μl/hr into the lateral ventricle, 3.5 days, relative to vehicle
Procedure: 10 week old male mice (C57B1/2), maintained on a 12 hr light/dark cycle with food and water ad libidum, were infused in the right lateral ventricle with PACAP38 (Bachem), using a Alzet pump (1007D), for 3,5 days or 7 days at a daily dose of 31 ng/day (600 nM PACAP pump concentration infused at a rate of 0.5 μl/hr). Bromodeoxyuridine (BrdU) (50 mg/ml) was also included in the infusion vehicle (0.9% saline containing 1 mg/ml mouse serum albumin (Sigma)) to enable measurement of proliferation by quantitation of BrdU incorporation in the DNA. The group of infused with either PACAP/BrdU or vehicle/BrdU for 3,5 days and sacrificed at this time point. […]
Brains were cut into 14-μm coronal sections using a cryostat-microtome. […] After 1 hour of washing, the BrdU-antibody complex was detected using 0.05% diaminobenzidine with 0.01% H2O2, and counterstained with Hematoxylin. […]
For all BrdU labelling experiments, three to six sections per animal were analysed. […] The number of BrdU-labelled cells per area of dentate granule cell layer was counted manually. […] BrdU-positive cells were counted along 2×250 micrometer strips of the lateral ventricle wall (see FIG. 18). Area measurements of both the dentate granule cell layer and the “counted” region of the lateral ventricle wall (including the ependymal cell layer and subventricular zone) were made from each slide used for the cell counts. […]

With “pituitary adenylate cyclase-activating polypeptide [PACAP]” the “intracellular ATP levels, and hence cell number” value [1] was “statistically significant increase in intracellular ATP levels”, the “incorporation of tritiated thymidine” value [2] was “No significant difference” and the “proliferation in the ipsilateral dentate gyrus (BrdU positive cells/mm^2)” value [3] was “significant increase in proliferation”.
